Results taken from ChEMBL document CHEMBL1201862, “PubChem BioAssay data set” (2004).
Activity calls are given as the source filed them.

How the values were obtained:
[1] = biological target: DNA dC->dU-editing enzyme APOBEC-3A (Homo sapiens, UniProt P31941); assay: Dose Response confirmation of small molecule APOBEC3A DNA Deaminase Inhibitors via a fluorescence-based single-stranded DNA deaminase assay. [Related pubchem assays (depositor defined):AID493011, AID493024]; assay type: functional
[2] = biological target: DNA dC->dU-editing enzyme APOBEC-3G (Homo sapiens, UniProt Q9HC16); assay type: functional;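 also: Dose-response counterscreen measuring inhibition of APOBEC3G DNA deaminase activity, run while confirming APOBEC3A inhibitors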
[3] = biological target: T1, Tyrosine-protein phosphatase non-receptor type 7 (Homo sapiens, UniProt P35236); assay: redox-active compounds inhibiting HePTP phosphatase – biochemical, fluorescence, mechanism study (AID 2068); assay type: functional
T1 sequence (P35236 whole entry): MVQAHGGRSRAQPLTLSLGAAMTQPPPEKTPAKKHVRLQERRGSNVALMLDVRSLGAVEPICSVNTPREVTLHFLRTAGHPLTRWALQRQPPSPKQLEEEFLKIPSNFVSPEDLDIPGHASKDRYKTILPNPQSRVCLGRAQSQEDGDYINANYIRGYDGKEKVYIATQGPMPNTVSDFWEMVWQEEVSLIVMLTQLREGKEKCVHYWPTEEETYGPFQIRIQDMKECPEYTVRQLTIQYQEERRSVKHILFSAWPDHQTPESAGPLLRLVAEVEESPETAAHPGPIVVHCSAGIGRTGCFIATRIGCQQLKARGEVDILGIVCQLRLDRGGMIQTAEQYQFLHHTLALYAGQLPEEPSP

[4] = biological target: T2, Aspartyl aminopeptidase (Plasmodium falciparum 3D7, UniProt Q8I2J3)
T2 sequence (Q8I2J3 whole entry): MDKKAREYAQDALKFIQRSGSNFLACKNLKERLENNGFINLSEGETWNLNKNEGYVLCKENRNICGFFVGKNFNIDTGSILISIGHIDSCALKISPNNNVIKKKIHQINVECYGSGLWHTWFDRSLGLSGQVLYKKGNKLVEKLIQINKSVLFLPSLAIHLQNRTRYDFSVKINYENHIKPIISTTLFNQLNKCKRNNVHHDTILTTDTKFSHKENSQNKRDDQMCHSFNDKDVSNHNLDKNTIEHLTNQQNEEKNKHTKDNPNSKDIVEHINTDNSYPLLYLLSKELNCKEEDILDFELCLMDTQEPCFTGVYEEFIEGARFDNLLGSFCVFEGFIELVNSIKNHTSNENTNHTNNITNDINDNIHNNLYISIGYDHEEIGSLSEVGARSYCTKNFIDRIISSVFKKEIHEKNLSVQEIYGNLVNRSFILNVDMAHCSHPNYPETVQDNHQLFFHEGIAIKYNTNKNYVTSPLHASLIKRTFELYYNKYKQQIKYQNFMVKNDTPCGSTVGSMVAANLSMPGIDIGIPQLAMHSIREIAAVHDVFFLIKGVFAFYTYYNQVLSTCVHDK

[5] = biological target: Procathepsin L (Homo sapiens, UniProt P07711)
[6] = biological target: Intestinal-type alkaline phosphatase (Homo sapiens, UniProt P09923); assay: activation of human intestinal alkaline phosphatase – biochemical, dose response (AID 488873); assay type: functional
[7] = biological target: Intestinal-type alkaline phosphatase (Mus musculus, UniProt P24822); assay: PubChem AID 488785; assay type: functional
[8] = biological target: T3, Alkaline phosphatase, tissue-nonspecific isozyme (Homo sapiens, UniProt P05186); assay: TNAP enzyme inhibition by screening hits, dose response, selectivity assay for mouse IAP inhibitor project, biochemical, human TNAP, uHTS hits (AID 488906); assay type: functional
T3 sequence (P05186 whole entry): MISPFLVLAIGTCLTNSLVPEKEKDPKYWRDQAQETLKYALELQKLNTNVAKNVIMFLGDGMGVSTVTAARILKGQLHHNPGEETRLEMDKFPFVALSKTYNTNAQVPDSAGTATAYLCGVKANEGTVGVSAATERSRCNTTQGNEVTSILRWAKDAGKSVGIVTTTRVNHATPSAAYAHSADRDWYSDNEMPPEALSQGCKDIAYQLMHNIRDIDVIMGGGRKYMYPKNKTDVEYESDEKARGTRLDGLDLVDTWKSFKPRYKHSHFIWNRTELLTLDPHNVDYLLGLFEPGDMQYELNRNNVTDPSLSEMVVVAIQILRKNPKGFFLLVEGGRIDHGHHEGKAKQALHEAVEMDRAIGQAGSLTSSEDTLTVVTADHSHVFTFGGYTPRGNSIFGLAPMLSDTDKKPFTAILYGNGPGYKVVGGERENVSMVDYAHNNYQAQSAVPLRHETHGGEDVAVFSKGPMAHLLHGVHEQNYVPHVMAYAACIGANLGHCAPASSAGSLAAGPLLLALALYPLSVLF

[9] = biological target: T4, Replicative DNA helicase DnaB (Mycobacterium tuberculosis, UniProt P9WMR3); assay: DnaB intein splicing inhibitors, dose response, biochemical, cell-free fluorescence (AID 449749); assay type: functional
T4 sequence (P9WMR3 whole entry): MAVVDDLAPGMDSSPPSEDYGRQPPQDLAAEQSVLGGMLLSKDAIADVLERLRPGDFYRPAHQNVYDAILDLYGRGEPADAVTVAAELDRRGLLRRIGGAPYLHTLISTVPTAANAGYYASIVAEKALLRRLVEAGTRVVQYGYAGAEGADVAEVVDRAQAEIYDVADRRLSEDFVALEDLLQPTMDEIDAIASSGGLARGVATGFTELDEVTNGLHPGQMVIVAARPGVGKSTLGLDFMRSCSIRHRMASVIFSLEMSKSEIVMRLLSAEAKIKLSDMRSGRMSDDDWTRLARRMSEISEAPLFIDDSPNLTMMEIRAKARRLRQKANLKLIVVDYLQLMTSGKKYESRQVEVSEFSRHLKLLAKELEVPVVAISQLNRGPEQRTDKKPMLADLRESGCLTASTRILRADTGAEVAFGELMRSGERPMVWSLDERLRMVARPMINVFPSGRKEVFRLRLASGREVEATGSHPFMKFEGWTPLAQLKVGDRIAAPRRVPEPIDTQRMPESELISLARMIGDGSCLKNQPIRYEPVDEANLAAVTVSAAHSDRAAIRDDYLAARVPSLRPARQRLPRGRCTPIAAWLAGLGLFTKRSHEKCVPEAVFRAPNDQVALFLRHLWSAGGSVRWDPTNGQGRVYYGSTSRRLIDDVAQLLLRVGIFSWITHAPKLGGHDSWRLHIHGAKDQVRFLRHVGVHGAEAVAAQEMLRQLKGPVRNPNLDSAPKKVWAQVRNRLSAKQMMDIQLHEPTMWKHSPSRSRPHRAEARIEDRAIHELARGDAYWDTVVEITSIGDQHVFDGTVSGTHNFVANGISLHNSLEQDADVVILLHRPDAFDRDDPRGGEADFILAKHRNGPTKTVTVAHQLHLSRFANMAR

[10] = biological target: T5, Protein RecA (Mycobacterium tuberculosis, UniProt P9WHJ3); assay: Fluorescence Cell-Free Homogeneous Dose Retest to Identify Inhibitors of RecA-Intein Splicing Activity. [Related pubchem assays (depositor defined):AID2097, AID2223, AID489010, AID492950]; assay type: functional
T5 sequence (P9WHJ3 whole entry): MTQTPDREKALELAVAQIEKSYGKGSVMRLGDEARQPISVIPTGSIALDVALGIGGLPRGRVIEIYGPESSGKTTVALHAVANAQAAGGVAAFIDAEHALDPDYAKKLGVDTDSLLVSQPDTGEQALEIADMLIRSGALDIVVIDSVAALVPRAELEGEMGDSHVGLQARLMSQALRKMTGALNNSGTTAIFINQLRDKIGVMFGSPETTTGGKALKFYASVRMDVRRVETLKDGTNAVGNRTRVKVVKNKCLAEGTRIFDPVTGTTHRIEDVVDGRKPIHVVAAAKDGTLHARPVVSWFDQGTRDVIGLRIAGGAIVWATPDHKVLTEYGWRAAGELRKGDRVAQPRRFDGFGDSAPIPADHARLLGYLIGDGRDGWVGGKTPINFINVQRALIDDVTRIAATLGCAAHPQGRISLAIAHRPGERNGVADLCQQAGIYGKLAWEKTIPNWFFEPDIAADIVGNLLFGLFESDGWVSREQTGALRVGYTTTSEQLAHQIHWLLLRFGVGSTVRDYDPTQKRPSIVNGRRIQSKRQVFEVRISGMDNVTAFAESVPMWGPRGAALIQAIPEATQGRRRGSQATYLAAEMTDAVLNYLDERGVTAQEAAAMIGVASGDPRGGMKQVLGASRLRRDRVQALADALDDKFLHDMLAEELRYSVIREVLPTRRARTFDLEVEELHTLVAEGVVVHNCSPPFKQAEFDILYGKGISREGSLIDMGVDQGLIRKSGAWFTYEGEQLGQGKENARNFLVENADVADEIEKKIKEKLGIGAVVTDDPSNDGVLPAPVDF

[11] = biological target: T6, Rac GTPase-activating protein 1 (Homo sapiens, UniProt Q9H0H5); assay: blockers of MgcRacGAP-driven Rac1 GTP hydrolysis – biochemical, ADP Hunter fluorescence, primary and confirmatory, confirmation (AID 624330); assay type: functional
T6 sequence (Q9H0H5 whole entry): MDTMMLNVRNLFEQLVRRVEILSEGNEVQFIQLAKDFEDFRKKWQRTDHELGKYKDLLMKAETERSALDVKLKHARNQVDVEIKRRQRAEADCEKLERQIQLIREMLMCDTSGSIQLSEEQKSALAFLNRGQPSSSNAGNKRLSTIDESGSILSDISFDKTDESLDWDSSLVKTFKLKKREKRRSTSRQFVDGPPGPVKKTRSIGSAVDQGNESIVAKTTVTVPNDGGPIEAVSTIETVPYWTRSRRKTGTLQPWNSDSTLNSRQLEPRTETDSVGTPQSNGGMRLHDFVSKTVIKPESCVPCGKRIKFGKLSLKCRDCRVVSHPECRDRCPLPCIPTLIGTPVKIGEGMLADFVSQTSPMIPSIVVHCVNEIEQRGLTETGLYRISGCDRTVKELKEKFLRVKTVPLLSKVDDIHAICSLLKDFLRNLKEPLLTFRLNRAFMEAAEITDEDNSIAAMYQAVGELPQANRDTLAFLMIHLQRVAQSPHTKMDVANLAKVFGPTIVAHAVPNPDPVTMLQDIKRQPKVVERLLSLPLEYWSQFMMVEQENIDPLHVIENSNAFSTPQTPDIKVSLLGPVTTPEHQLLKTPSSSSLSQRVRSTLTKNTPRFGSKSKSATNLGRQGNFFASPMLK

DNA dC->dU-editing enzyme APOBEC-3A, sequence (P31941 whole entry): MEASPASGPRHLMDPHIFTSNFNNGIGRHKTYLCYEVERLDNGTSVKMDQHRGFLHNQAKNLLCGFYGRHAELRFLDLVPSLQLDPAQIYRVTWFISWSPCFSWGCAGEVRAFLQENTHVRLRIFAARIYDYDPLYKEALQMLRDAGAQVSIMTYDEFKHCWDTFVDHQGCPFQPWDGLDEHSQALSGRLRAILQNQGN
DNA dC->dU-editing enzyme APOBEC-3G, sequence (Q9HC16 whole entry): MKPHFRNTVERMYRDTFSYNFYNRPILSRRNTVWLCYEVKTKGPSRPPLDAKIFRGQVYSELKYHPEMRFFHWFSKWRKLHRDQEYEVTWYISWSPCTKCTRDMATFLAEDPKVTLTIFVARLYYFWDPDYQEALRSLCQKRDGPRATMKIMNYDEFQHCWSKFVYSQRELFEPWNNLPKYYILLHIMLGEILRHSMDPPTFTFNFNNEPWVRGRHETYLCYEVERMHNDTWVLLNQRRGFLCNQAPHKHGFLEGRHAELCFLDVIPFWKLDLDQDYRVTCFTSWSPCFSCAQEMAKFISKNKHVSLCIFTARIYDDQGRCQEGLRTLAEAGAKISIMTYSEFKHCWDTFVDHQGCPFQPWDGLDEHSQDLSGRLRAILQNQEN
Intestinal-type alkaline phosphatase (Homo sapiens, UniProt P09923), sequence (P09923 whole entry): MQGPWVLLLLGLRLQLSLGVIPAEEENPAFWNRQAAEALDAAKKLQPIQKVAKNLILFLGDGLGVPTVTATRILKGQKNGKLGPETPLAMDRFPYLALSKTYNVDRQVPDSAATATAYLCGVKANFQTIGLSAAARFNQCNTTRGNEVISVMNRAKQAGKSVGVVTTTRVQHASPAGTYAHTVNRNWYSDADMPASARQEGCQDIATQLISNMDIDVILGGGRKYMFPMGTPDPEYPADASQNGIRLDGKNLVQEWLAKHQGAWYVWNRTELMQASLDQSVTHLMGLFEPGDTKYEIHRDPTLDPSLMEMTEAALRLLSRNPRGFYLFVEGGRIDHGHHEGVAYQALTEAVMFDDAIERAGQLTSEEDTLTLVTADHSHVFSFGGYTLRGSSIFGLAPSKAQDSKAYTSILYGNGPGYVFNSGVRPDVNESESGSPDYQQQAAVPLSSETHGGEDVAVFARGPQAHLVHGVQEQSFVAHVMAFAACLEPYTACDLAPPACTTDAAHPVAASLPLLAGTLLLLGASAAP
Procathepsin L, sequence (P07711 whole entry): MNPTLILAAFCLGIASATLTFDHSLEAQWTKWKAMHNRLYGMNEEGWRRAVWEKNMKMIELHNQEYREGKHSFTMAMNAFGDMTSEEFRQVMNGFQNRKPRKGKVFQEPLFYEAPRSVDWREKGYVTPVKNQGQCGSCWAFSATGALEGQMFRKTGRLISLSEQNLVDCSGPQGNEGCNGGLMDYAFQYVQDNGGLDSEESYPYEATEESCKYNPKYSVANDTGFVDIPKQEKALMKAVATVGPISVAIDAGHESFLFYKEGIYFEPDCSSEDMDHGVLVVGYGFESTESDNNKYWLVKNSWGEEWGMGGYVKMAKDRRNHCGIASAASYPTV
Intestinal-type alkaline phosphatase (Mus musculus, UniProt P24822), sequence (P24822 whole entry): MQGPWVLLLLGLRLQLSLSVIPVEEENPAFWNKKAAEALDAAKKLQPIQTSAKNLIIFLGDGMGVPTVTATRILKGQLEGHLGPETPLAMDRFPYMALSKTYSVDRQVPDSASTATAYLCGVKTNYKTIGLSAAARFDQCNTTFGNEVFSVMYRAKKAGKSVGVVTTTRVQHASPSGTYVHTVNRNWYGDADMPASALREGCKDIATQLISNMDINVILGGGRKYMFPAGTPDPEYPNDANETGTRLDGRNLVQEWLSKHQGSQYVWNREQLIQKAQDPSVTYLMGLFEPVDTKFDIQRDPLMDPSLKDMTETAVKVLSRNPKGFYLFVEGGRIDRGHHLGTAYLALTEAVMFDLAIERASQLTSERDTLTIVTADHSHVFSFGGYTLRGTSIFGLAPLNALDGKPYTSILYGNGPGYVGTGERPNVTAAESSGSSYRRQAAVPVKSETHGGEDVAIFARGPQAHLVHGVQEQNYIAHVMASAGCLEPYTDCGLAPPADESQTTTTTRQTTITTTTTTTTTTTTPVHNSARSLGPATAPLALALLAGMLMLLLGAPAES

Structure (SMILES): CCC(CO)(C(=O)OC1C[N+]2(C)CCC1CC2)c1ccccc1 (stereo not drawn)
- IC50 [1]: 2.25 µM (active)
- IC50 [2]: 2.09 µM (active)

Structure (SMILES): CCn1c(C)[n+](CC)c2cc(S(=O)(=O)NC)ccc21
- IC50 [1]: 6.81 µM (active)
- IC50 [2]: 17.5 µM (active)

Structure (SMILES): O=C(NCc1ccc2c(c1)OCO2)Nc1ccc2nc(-c3ccco3)c(-c3ccco3)nc2c1
- IC50 [3]: 2.15 µM (active)

Structure (SMILES): Oc1cc(O)c2c(c1)O[C@H](c1ccc(O)c(O)c1)[C@H](O)C2 [(-)-EPICATECHIN]
- IC50 [4]: 1.38 µM (active)
- IC50 [5]: > 59.6 µM (not active)
- EC50 [6]: > 100 µM (inactive)
- IC50 [7]: 1.36 µM (active)
- IC50 [8]: 0.407 µM (active)
- AC50 [9]: > 380 µM (inactive)
- EC50 [10]: > 380 µM (inconclusive)
- IC50 [11]: 206 µM (active)
